Data published in the supplement of paper PMC8671470.
± gives the standard deviation of the averaged measurements.

These compounds were tested on HL-60 (assay: cell viability (% survival relative to DMSO control); higher = less cytotoxic). Conditions: 0.001 µM; 72 h; co-treatment: AZD3965 100 nM.
Summary of the method: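 Area under the curve, where listed, was derived from four-parameter log-logistic fits with drc and PharmacoGx. These fits used CellTiter-Glo viability from HL-60 cells in RPMI 1640 with 10% FBS, normalised to DMSO wells and wells holding 10 μM proteasome inhibitor. The full library was rescreened on 384-well plates in duplicate at five tenfold concentrations, 1–10,000 nM, with DMSO or 100 nM of one of three metabolic inhibitors, for 72 h at 37 °C, 5% CO2.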

SMILES	cell viability
CN(C)CCNC(=O)c1cccn2c(=O)c3cc4ccccc4cc3nc12 [Bmh-21]	97.56 ± 0.42%
C=C1C(=O)O[C@H](CCCCCCCC)[C@H]1C(=O)O [C75]	108 ± 5.4%
O=C(Cc1cccc(OC(F)(F)F)c1)Nc1ccc(CCCCc2nnc(NC(=O)Cc3ccccn3)s2)nn1 [CB-839]	105 ± 1.2%
O=NN(CCCl)C(=O)NCCCl [Carmustine]	95.3 ± 1.7%
O[C@H]1[C@H](O)[C@@H](O)CN2CC[C@H](O)[C@H]12 [Castanospermine]	97.9 ± 2.2%
O=C(/C=C/c1cccnc1)NCCCCC1CCN(C(=O)c2ccccc2)CC1 [Daporinad]	101 ± 1.5%
N=C(N)c1ccc(N=NNc2ccc(C(=N)N)cc2)cc1 [Diminazene]	94.9 ± 10%
OCCN(CCO)c1nc(N2CCCCC2)c2nc(N(CCO)CCO)nc(N3CCCCC3)c2n1 [Dipyridamole]	95.7 ± 8%
Cc1cc(O)c2c(c1)C(=O)c1cc(O)cc(O)c1C2=O [Emodin]	101 ± 3.6%
N#Cc1ccc(C2CCCc3cncn32)cc1 (centres undefined) [Fadrozole]	99.99 ± 0.4%
Cc1nc(-c2ccc(OCC(C)C)c(C#N)c2)sc1C(=O)O [Febuxostat]	96.8 ± 1%

Same assay, conditions: 0.001 µM; 72 h; co-treatment: DMSO vehicle

SMILES	cell viability
CN(C)CCNC(=O)c1cccn2c(=O)c3cc4ccccc4cc3nc12 [Bmh-21]	101.2 ± 0.36%
C=C1C(=O)O[C@H](CCCCCCCC)[C@H]1C(=O)O [C75]	105 ± 8.6%
O=C(Cc1cccc(OC(F)(F)F)c1)Nc1ccc(CCCCc2nnc(NC(=O)Cc3ccccn3)s2)nn1 [CB-839]	97.2 ± 2.6%
O=NN(CCCl)C(=O)NCCCl [Carmustine]	96.8 ± 3.4%
O[C@H]1[C@H](O)[C@@H](O)CN2CC[C@H](O)[C@H]12 [Castanospermine]	98 ± 6.5%
O=C(/C=C/c1cccnc1)NCCCCC1CCN(C(=O)c2ccccc2)CC1 [Daporinad]	93.6 ± 1.4%
N=C(N)c1ccc(N=NNc2ccc(C(=N)N)cc2)cc1 [Diminazene]	101.5 ± 0.37%
OCCN(CCO)c1nc(N2CCCCC2)c2nc(N(CCO)CCO)nc(N3CCCCC3)c2n1 [Dipyridamole]	101 ± 5%
Cc1cc(O)c2c(c1)C(=O)c1cc(O)cc(O)c1C2=O [Emodin]	102 ± 3.5%
N#Cc1ccc(C2CCCc3cncn32)cc1 (centres undefined) [Fadrozole]	103 ± 3.8%
Cc1nc(-c2ccc(OCC(C)C)c(C#N)c2)sc1C(=O)O [Febuxostat]	96.5 ± 3.3%

Same assay, conditions: 0.001 µM; 72 h; co-treatment: GSK2194069 100 nM

SMILES	cell viability
CN(C)CCNC(=O)c1cccn2c(=O)c3cc4ccccc4cc3nc12 [Bmh-21]	98.9 ± 6.8%
C=C1C(=O)O[C@H](CCCCCCCC)[C@H]1C(=O)O [C75]	96 ± 22%
O=C(Cc1cccc(OC(F)(F)F)c1)Nc1ccc(CCCCc2nnc(NC(=O)Cc3ccccn3)s2)nn1 [CB-839]	103 ± 3%
O=NN(CCCl)C(=O)NCCCl [Carmustine]	89.9 ± 1.6%
O[C@H]1[C@H](O)[C@@H](O)CN2CC[C@H](O)[C@H]12 [Castanospermine]	77.1 ± 28%
O=C(/C=C/c1cccnc1)NCCCCC1CCN(C(=O)c2ccccc2)CC1 [Daporinad]	86.2 ± 22%
N=C(N)c1ccc(N=NNc2ccc(C(=N)N)cc2)cc1 [Diminazene]	99.7 ± 7.5%
OCCN(CCO)c1nc(N2CCCCC2)c2nc(N(CCO)CCO)nc(N3CCCCC3)c2n1 [Dipyridamole]	94.2 ± 5.8%
Cc1cc(O)c2c(c1)C(=O)c1cc(O)cc(O)c1C2=O [Emodin]	92.5 ± 2.3%
N#Cc1ccc(C2CCCc3cncn32)cc1 (centres undefined) [Fadrozole]	105 ± 7.6%
Cc1nc(-c2ccc(OCC(C)C)c(C#N)c2)sc1C(=O)O [Febuxostat]	99.9 ± 2.2%

Same assay, conditions: 0.001 µM; 72 h; co-treatment: pictilisib 100 nM

SMILES	cell viability
CN(C)CCNC(=O)c1cccn2c(=O)c3cc4ccccc4cc3nc12 [Bmh-21]	94.2 ± 4.5%
C=C1C(=O)O[C@H](CCCCCCCC)[C@H]1C(=O)O [C75]	103 ± 29%
O=C(Cc1cccc(OC(F)(F)F)c1)Nc1ccc(CCCCc2nnc(NC(=O)Cc3ccccn3)s2)nn1 [CB-839]	100.52 ± 0.023%
O=NN(CCCl)C(=O)NCCCl [Carmustine]	86.1 ± 8.4%
O[C@H]1[C@H](O)[C@@H](O)CN2CC[C@H](O)[C@H]12 [Castanospermine]	108 ± 6.9%
O=C(/C=C/c1cccnc1)NCCCCC1CCN(C(=O)c2ccccc2)CC1 [Daporinad]	89.7 ± 58%
N=C(N)c1ccc(N=NNc2ccc(C(=N)N)cc2)cc1 [Diminazene]	83.5 ± 15%
OCCN(CCO)c1nc(N2CCCCC2)c2nc(N(CCO)CCO)nc(N3CCCCC3)c2n1 [Dipyridamole]	90.6 ± 21%
Cc1cc(O)c2c(c1)C(=O)c1cc(O)cc(O)c1C2=O [Emodin]	96.6 ± 2.1%
N#Cc1ccc(C2CCCc3cncn32)cc1 (centres undefined) [Fadrozole]	103 ± 6%
Cc1nc(-c2ccc(OCC(C)C)c(C#N)c2)sc1C(=O)O [Febuxostat]	98.2 ± 2.1%

Same assay, conditions: 0.01 µM; 72 h; co-treatment: AZD3965 100 nM

SMILES	cell viability
CN(C)CCNC(=O)c1cccn2c(=O)c3cc4ccccc4cc3nc12 [Bmh-21]	95.3 ± 3.3%
C=C1C(=O)O[C@H](CCCCCCCC)[C@H]1C(=O)O [C75]	91.5 ± 7.9%
O=C(Cc1cccc(OC(F)(F)F)c1)Nc1ccc(CCCCc2nnc(NC(=O)Cc3ccccn3)s2)nn1 [CB-839]	103.64 ± 0.054%
O=NN(CCCl)C(=O)NCCCl [Carmustine]	95 ± 12%
O[C@H]1[C@H](O)[C@@H](O)CN2CC[C@H](O)[C@H]12 [Castanospermine]	97.5 ± 4.8%
O=C(/C=C/c1cccnc1)NCCCCC1CCN(C(=O)c2ccccc2)CC1 [Daporinad]	17.8 ± 2%
N=C(N)c1ccc(N=NNc2ccc(C(=N)N)cc2)cc1 [Diminazene]	98.5 ± 3.5%
OCCN(CCO)c1nc(N2CCCCC2)c2nc(N(CCO)CCO)nc(N3CCCCC3)c2n1 [Dipyridamole]	98.9 ± 3.2%
Cc1cc(O)c2c(c1)C(=O)c1cc(O)cc(O)c1C2=O [Emodin]	97.9 ± 3.5%
N#Cc1ccc(C2CCCc3cncn32)cc1 (centres undefined) [Fadrozole]	98.614 ± 0.083%
Cc1nc(-c2ccc(OCC(C)C)c(C#N)c2)sc1C(=O)O [Febuxostat]	104 ± 1.1%

Same assay, conditions: 0.01 µM; 72 h; co-treatment: DMSO vehicle

SMILES	cell viability
CN(C)CCNC(=O)c1cccn2c(=O)c3cc4ccccc4cc3nc12 [Bmh-21]	98.3 ± 6.6%
C=C1C(=O)O[C@H](CCCCCCCC)[C@H]1C(=O)O [C75]	99.5 ± 1.4%
O=C(Cc1cccc(OC(F)(F)F)c1)Nc1ccc(CCCCc2nnc(NC(=O)Cc3ccccn3)s2)nn1 [CB-839]	102 ± 6.1%
O=NN(CCCl)C(=O)NCCCl [Carmustine]	102 ± 6%
O[C@H]1[C@H](O)[C@@H](O)CN2CC[C@H](O)[C@H]12 [Castanospermine]	100.5 ± 0.15%
O=C(/C=C/c1cccnc1)NCCCCC1CCN(C(=O)c2ccccc2)CC1 [Daporinad]	37.7 ± 8.6%
N=C(N)c1ccc(N=NNc2ccc(C(=N)N)cc2)cc1 [Diminazene]	100.7 ± 0.87%
OCCN(CCO)c1nc(N2CCCCC2)c2nc(N(CCO)CCO)nc(N3CCCCC3)c2n1 [Dipyridamole]	97.54 ± 0.47%
Cc1cc(O)c2c(c1)C(=O)c1cc(O)cc(O)c1C2=O [Emodin]	100 ± 1.2%
